Laboratory results as given in patent US20250154686A1, “COMPOUND LIBRARY” (CHUGAI SEIYAKU KABUSHIKI KAISHA, priority 2021, published 2025).

Biological target: T1, Bcl-2 protein (Recombinant Human Bcl-2 Protein) (Homo sapiens, UniProt P10415)
T1 construct: purchased Novus Biologicals NBP2-34889
Assay: AS-MS evaluation of binding of the Example 4 mixture library (1200 compounds/well) to Bcl-2, ASMS ratio (%)
Conditions: Example 4 mixture library
Summary of the method: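 Recombinant human Bcl-2 at 20 μM final was exposed to a 1200-member compound pool (20 nM per compound) in pH 7.4 Tris-HCl buffer containing NaCl, Tween-20 and DTT. After 1 h at 23 °C, protein–ligand complexes passed SEC spin columns; LC/MS signals were compared with protein-free standard and blank samples to give ASMS ratio.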

[1] = 1200 compounds/well, Bcl-2 protein, replicate n = 2, value belongs to the MS peak assignable to the compound

T1 sequence (P10415 whole entry): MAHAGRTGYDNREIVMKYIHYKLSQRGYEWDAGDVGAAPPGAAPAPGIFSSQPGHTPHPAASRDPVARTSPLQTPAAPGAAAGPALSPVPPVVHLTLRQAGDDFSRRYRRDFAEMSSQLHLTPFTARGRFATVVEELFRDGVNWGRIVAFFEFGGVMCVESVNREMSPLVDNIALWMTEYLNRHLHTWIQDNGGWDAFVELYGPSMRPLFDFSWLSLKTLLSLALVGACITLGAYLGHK

Row | ASMS ratio (%) n = 1 (AS-MS, Bcl-2, replicate n = 1) [%] | ASMS ratio (%) n = 2 (AS-MS, Bcl-2, replicate n = 2) [%] | ASMS ratio (%) n = 1 (1200 compounds/well, Bcl-2 protein, replicate n = 1, value belongs to the MS peak assignable to the compound) [%] | ASMS ratio (%) n = 2 [1] [%] | SMILES
1 | 0.0 | 0.0 | – | – | CCOc1cncc(-c2ccc(CN3CCN(c4ccc(C(=O)NS(=O)(=O)CCC(F)(F)F)nn4)CC3)c3ccccc23)c1 [Compound B2N092-01, 6-[4-[[4-(5-Ethoxypyridin-3-yl)naphthalen-1-yl]methyl]piperazin-1-yl]-N-(3,3,3-trifluoropropylsulfonyl)pyridazine-3-carboxamide]
2 | 0.0 | – | – | – | CCOc1cccc(-c2csc(CN3CCN(c4ccc(C(=O)NS(=O)(=O)CCC(F)(F)F)nn4)CC3)c2)c1 [Compound B2N093-01]
3 | 0.0 | 0.0 | – | – | CCOc1cncc(-c2csc(CN3CCN(c4ccc(C(=O)NS(=O)(=O)CCC(F)(F)F)nn4)CC3)c2)c1 [Compound B2N094-01, 6-[4-[[4-(5-Ethoxypyridin-3-yl)thiophen-2-yl]methyl]piperazin-1-yl]-N-(3,3,3-trifluoropropylsulfonyl)pyridazine-3-carboxamide]
4 | 0.0 | 0.0 | – | – | CCOc1cccc(C#Cc2ccccc2CN2CCN(c3ccc(C(=O)NS(=O)(=O)CCC(F)(F)F)nn3)CC2)c1 [Compound B2N095-01]
5 | 0.0 | 0.0 | – | – | CCOc1cccc(-c2ccc(C(C)N3CCN(c4ccc(C(=O)NS(=O)(=O)CCC(F)(F)F)cc4)CC3)cc2)c1 (centres unmarked) [Compound B2N097-01, 4-[4-[1-[4-(3-Ethoxyphenyl)phenyl]ethyl]piperazin-1-yl]-N-(3,3,3-trifluoropropylsulfonyl)benzamide]
6 | 0.0 | −0.7 | – | – | CCOc1cncc(-c2ccc(C(C)N3CCN(c4ccc(C(=O)NS(=O)(=O)CCC(F)(F)F)cc4)CC3)cc2)c1 (centres unmarked) [Compound B2N098-01, 4-[4-[1-[4-(5-Ethoxypyridin-3-yl)phenyl]ethyl]piperazin-1-yl]-N-(3,3,3-trifluoropropylsulfonyl)benzamide]
7 | 0.0 | 0.0 | – | – | CCOc1cccc(-c2ccc(C(C)N3CCN(c4ccc(C(=O)NS(=O)(=O)CCC(F)(F)F)cc4)CC3)c(F)c2)c1 (centres unmarked) [Compound B2N099-01, 4-[4-[1-[4-(3-Ethoxyphenyl)-2-fluorophenyl]ethyl]piperazin-1-yl]-N-(3,3,3-trifluoropropylsulfonyl)benzamide]
8 | 0.0 | 0.0 | – | – | CCOc1cncc(-c2ccc(C(C)N3CCN(c4ccc(C(=O)NS(=O)(=O)CCC(F)(F)F)cc4)CC3)c(F)c2)c1 (centres unmarked) [Compound B2N100-01, 4-[4-[1-[4-(5-Ethoxypyridin-3-yl)-2-fluorophenyl]ethyl]piperazin-1-yl]-N-(3,3,3-trifluoropropylsulfonyl)benzamide]
9 | – | – | 3.9 | 1.5 | CCOc1cncc(-c2cc(C(=O)N3CCN(c4ccc(C(=O)NS(=O)(=O)c5ccc(NCCSc6ccccc6)c([N+](=O)[O-])c5)cc4)CC3)cc(C(F)(F)F)c2)c1 [Compound B2Q040-01, 4-[4-[3-(5-Ethoxypyridin-3-yl)-5-(trifluoromethyl)benzoyl]piperazin-1-yl]-N-[3-nitro-4-(2-phenylsulfanylethylamino)phenyl]sulfonylbenzamide]
10 | – | – | – | −15.0 | CCOc1cccc(-c2cc(CN3CCN(c4ccc(C(=O)NS(=O)(=O)c5ccc(NCCSc6ccccc6)c([N+](=O)[O-])c5)nn4)CC3)cc(OC(F)(F)F)c2)c1 [Compound B2Q089-01, 6-[4-[[3-(3-Ethoxyphenyl)-5-(trifluoromethoxy)phenyl]methyl]piperazin-1-yl]-N-[3-nitro-4-(2-phenylsulfanylethylamino)phenyl]sulfonylpyridazine-3-carboxamide]
11 | 0.0 | 0.0 | – | – | CCOc1cncc(-c2csc(C(=O)N3CCN(c4ccc(C(=O)NS(=O)(=O)c5ccc(NCCSc6ccccc6)c(C(F)(F)F)c5)nn4)CC3)c2)c1 [Compound B2R002-01, 6-[4-[4-(5-Ethoxypyridin-3-yl)thiophene-2-carbonyl]piperazin-1-yl]-N-[4-(2-phenylsulfanylethylamino)-3-(trifluoromethyl)phenyl]sulfonylpyridazine-3-carboxamide]
12 | 21.6 | 0.0 | – | – | CCOc1cccc(-c2ccc(C(=O)N3CCN(c4ccc(C(=O)NS(=O)(=O)c5ccc(NCCSc6ccccc6)c(C(F)(F)F)c5)nn4)CC3)cc2C)c1 [Compound B2R003-01, 6-[4-[4-(3-Ethoxyphenyl)-3-methylbenzoyl]piperazin-1-yl]-N-[4-(2-phenylsulfanylethylamino)-3-(trifluoromethyl)phenyl]sulfonylpyridazine-3-carboxamide]
13 | 0.0 | 0.0 | – | – | CCOc1cncc(-c2ccc(C(=O)N3CCN(c4ccc(C(=O)NS(=O)(=O)c5ccc(NCCSc6ccccc6)c(C(F)(F)F)c5)nn4)CC3)cc2C)c1 [Compound B2R004-01, 6-[4-[4-(5-Ethoxypyridin-3-yl)-3-methylbenzoyl]piperazin-1-yl]-N-[4-(2-phenylsulfanylethylamino)-3-(trifluoromethyl)phenyl]sulfonylpyridazine-3-carboxamide]
14 | 44.0 | 39.5 | – | – | CCOc1cccc(-c2ccc(C(=O)N3CCN(c4ccc(C(=O)NS(=O)(=O)c5ccc(NCCSc6ccccc6)c(C(F)(F)F)c5)nn4)CC3)cc2F)c1 [Compound B2R005-01, 6-[4-[4-(3-Ethoxyphenyl)-3-fluorobenzoyl]piperazin-1-yl]-N-[4-(2-phenylsulfanylethylamino)-3-(trifluoromethyl)phenyl]sulfonylpyridazine-3-carboxamide]
15 | 0.0 | – | – | – | CCOc1cccc(C#Cc2ccccc2C(=O)N2CCN(c3ccc(C(=O)NS(=O)(=O)c4ccc(NCCSc5ccccc5)c(C(F)(F)F)c4)nn3)CC2)c1 [Compound B2R007-01, 6-[4-[2-[2-(3-Ethoxyphenyl)ethynyl]benzoyl]piperazin-1-yl]-N-[4-(2-phenylsulfanylethylamino)-3-(trifluoromethyl)phenyl]sulfonylpyridazine-3-carboxamide]
16 | 0.0 | 19.5 | – | – | CCOc1cncc(C#Cc2ccccc2C(=O)N2CCN(c3ccc(C(=O)NS(=O)(=O)c4ccc(NCCSc5ccccc5)c(C(F)(F)F)c4)nn3)CC2)c1 [Compound B2R008-01, 6-[4-[2-[2-(5-Ethoxypyridin-3-yl)ethynyl]benzoyl]piperazin-1-yl]-N-[4-(2-phenylsulfanylethylamino)-3-(trifluoromethyl)phenyl]sulfonylpyridazine-3-carboxamide]
17 | 0.0 | 19.5 | – | – | CCOc1cccc(C#Cc2cncc(C(=O)N3CCN(c4ccc(C(=O)NS(=O)(=O)c5ccc(NCCSc6ccccc6)c(C(F)(F)F)c5)nn4)CC3)c2)c1 [Compound B2R009-01, 6-[4-[5-[2-(3-Ethoxyphenyl)ethynyl]pyridine-3-carbonyl]piperazin-1-yl]-N-[4-(2-phenylsulfanylethylamino)-3-(trifluoromethyl)phenyl]sulfonylpyridazine-3-carboxamide]
18 | 0.0 | 0.0 | – | – | CCOc1cncc(C#Cc2cncc(C(=O)N3CCN(c4ccc(C(=O)NS(=O)(=O)c5ccc(NCCSc6ccccc6)c(C(F)(F)F)c5)nn4)CC3)c2)c1 [Compound B2R010-01, 6-[4-[5-[2-(5-Ethoxypyridin-3-yl)ethynyl]pyridine-3-carbonyl]piperazin-1-yl]-N-[4-(2-phenylsulfanylethylamino)-3-(trifluoromethyl)phenyl]sulfonylpyridazine-3-carboxamide]
19 | 17.7 | −1.3 | – | – | CCOc1cccc(-c2ccccc2CCC(=O)N2CCN(c3ccc(C(=O)NS(=O)(=O)c4ccc(NCCSc5ccccc5)c(C(F)(F)F)c4)nn3)CC2)c1 [Compound B2R011-01, 6-[4-[3-[2-(3-Ethoxyphenyl)phenyl]propanoyl]piperazin-1-yl]-N-[4-(2-phenylsulfanylethylamino)-3-(trifluoromethyl)phenyl]sulfonylpyridazine-3-carboxamide]
20 | 15.8 | 13.5 | – | – | CCOc1cncc(-c2ccccc2CCC(=O)N2CCN(c3ccc(C(=O)NS(=O)(=O)c4ccc(NCCSc5ccccc5)c(C(F)(F)F)c4)nn3)CC2)c1 [Compound B2R012-01, 6-[4-[3-[2-(5-Ethoxypyridin-3-yl)phenyl]propanoyl]piperazin-1-yl]-N-[4-(2-phenylsulfanylethylamino)-3-(trifluoromethyl)phenyl]sulfonylpyridazine-3-carboxamide]
21 | 7.5 | 7.7 | – | – | CCOc1cccc(-c2ccc(C(=O)N3CCN(c4ccc(C(=O)NS(=O)(=O)c5ccc(NCCSc6ccccc6)c(C(F)(F)F)c5)nn4)CC3)c3ccccc23)c1 [Compound B2R013-01, 6-[4-[4-(3-Ethoxyphenyl)naphthalene-1-carbonyl]piperazin-1-yl]-N-[4-(2-phenylsulfanylethylamino)-3-(trifluoromethyl)phenyl]sulfonylpyridazine-3-carboxamide]
22 | 18.6 | 15.1 | – | – | CCOc1cncc(-c2ccc(C(=O)N3CCN(c4ccc(C(=O)NS(=O)(=O)c5ccc(NCCSc6ccccc6)c(C(F)(F)F)c5)nn4)CC3)c3ccccc23)c1 [Compound B2R014-01, 6-[4-[4-(5-Ethoxypyridin-3-yl)naphthalene-1-carbonyl]piperazin-1-yl]-N-[4-(2-phenylsulfanylethylamino)-3-(trifluoromethyl)phenyl]sulfonylpyridazine-3-carboxamide]
